Experimental data: US8192962B2, “Processes for detecting toxic substances” (Daikin Industries, Ltd., priority 2001, dated 2012)

Tested on: Transport facilitation protein genes
Test: DNA chip mRNA expression in yeast, transport facilitation protein genes (Table 5)
Type: cell-based, Saccharomyces cerevisiae S288C
Method in brief: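 First, S288C yeast grown in YPD at 25° C. are dosed in log phase with one toxicant (growth-inhibiting, not lethal) for 2 h. Next, total RNA is extracted and poly(A) mRNA isolated and reverse-transcribed with Cy3/Cy5-dUTP. Finally, whole-genome chip fluorescence is read relative to unexposed cells.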

Oc1cc(Cl)c(Cl)cc1Cl [(6), 2,4,5-trichlorophenol]
The level of expressed mRNA in the presence of chemical substance/The level of expressed mRNA in the absence of chemical substance (yeast gene YGR281W): 1.9 | The level of expressed mRNA in the presence of chemical substance/The level of expressed mRNA in the absence of chemical substance (yeast gene YHL035C): 4.1 | The level of expressed mRNA in the presence of chemical substance/The level of expressed mRNA in the absence of chemical substance (yeast gene YHL040C): 7.3 | The level of expressed mRNA in the presence of chemical substance/The level of expressed mRNA in the absence of chemical substance (yeast gene YHL047C): 8.4 | The level of expressed mRNA in the presence of chemical substance/The level of expressed mRNA in the absence of chemical substance (yeast gene YHR026W): 1.3 | The level of expressed mRNA in the presence of chemical substance/The level of expressed mRNA in the absence of chemical substance (yeast gene YHR092C): 1.7 | The level of expressed mRNA in the presence of chemical substance/The level of expressed mRNA in the absence of chemical substance (yeast gene YHR094C): 1.6 | The level of expressed mRNA in the presence of chemical substance/The level of expressed mRNA in the absence of chemical substance (yeast gene YHR175W): 1.0 | The level of expressed mRNA in the presence of chemical substance/The level of expressed mRNA in the absence of chemical substance (yeast gene YIL006W): 0.3 | The level of expressed mRNA in the presence of chemical substance/The level of expressed mRNA in the absence of chemical substance (yeast gene YIL022W): 1.2 | The level of expressed mRNA in the presence of chemical substance/The level of expressed mRNA in the absence of chemical substance (yeast gene YIL056W): 1.0 | The level of expressed mRNA in the presence of chemical substance/The level of expressed mRNA in the absence of chemical substance (yeast gene YIL088C): 2.2 | The level of expressed mRNA in the presence of chemical substance/The level of expressed mRNA in the absence of chemical substance (yeast gene YJL034W): 1.1 | The level of expressed mRNA in the presence of chemical substance/The level of expressed mRNA in the absence of chemical substance (yeast gene YJL212C): 1.1 | The level of expressed mRNA in the presence of chemical substance/The level of expressed mRNA in the absence of chemical substance (yeast gene YJL219W): 1.5 | The level of expressed mRNA in the presence of chemical substance/The level of expressed mRNA in the absence of chemical substance (yeast gene YJR077C): 0.9 | The level of expressed mRNA in the presence of chemical substance/The level of expressed mRNA in the absence of chemical substance (yeast gene YJR106W): 1.2 | The level of expressed mRNA in the presence of chemical substance/The level of expressed mRNA in the absence of chemical substance (yeast gene YJR121W): 1.5 | The level of expressed mRNA in the presence of chemical substance/The level of expressed mRNA in the absence of chemical substance (yeast gene YKL016C): 0.8 | The level of expressed mRNA in the presence of chemical substance/The level of expressed mRNA in the absence of chemical substance (yeast gene YKL146W): 1.3 | The level of expressed mRNA in the presence of chemical substance/The level of expressed mRNA in the absence of chemical substance (yeast gene YKR039W): 2.8 | The level of expressed mRNA in the presence of chemical substance/The level of expressed mRNA in the absence of chemical substance (yeast gene YKR067W): 1.8 | The level of expressed mRNA in the presence of chemical substance/The level of expressed mRNA in the absence of chemical substance (yeast gene YLL028W): 1.7 | The level of expressed mRNA in the presence of chemical substance/The level of expressed mRNA in the absence of chemical substance (yeast gene YLL055W): 1.4 | The level of expressed mRNA in the presence of chemical substance/The level of expressed mRNA in the absence of chemical substance (yeast gene YLR081W): 0.9 | The level of expressed mRNA in the presence of chemical substance/The level of expressed mRNA in the absence of chemical substance (yeast gene YLR295C): 1.1 | The level of expressed mRNA in the presence of chemical substance/The level of expressed mRNA in the absence of chemical substance (yeast gene YLR348C): 1.9 | The level of expressed mRNA in the presence of chemical substance/The level of expressed mRNA in the absence of chemical substance (yeast gene YLR378C): 1.2 | The level of expressed mRNA in the presence of chemical substance/The level of expressed mRNA in the absence of chemical substance (yeast gene YMR011W): 0.6 | The level of expressed mRNA in the presence of chemical substance/The level of expressed mRNA in the absence of chemical substance (yeast gene YMR058W): 2.6 | The level of expressed mRNA in the presence of chemical substance/The level of expressed mRNA in the absence of chemical substance (yeast gene YMR162C): 1.0 | The level of expressed mRNA in the presence of chemical substance/The level of expressed mRNA in the absence of chemical substance (yeast gene YMR203W): 1.1 | The level of expressed mRNA in the presence of chemical substance/The level of expressed mRNA in the absence of chemical substance (yeast gene YNL055C): 2.6 | The level of expressed mRNA in the presence of chemical substance/The level of expressed mRNA in the absence of chemical substance (yeast gene YNL259C): 3.9 | The level of expressed mRNA in the presence of chemical substance/The level of expressed mRNA in the absence of chemical substance (yeast gene YNR072W): 0.9 | The level of expressed mRNA in the presence of chemical substance/The level of expressed mRNA in the absence of chemical substance (yeast gene YOL119C): 0.9 | The level of expressed mRNA in the presence of chemical substance/The level of expressed mRNA in the absence of chemical substance (yeast gene YOL156W): 1.2 | The level of expressed mRNA in the presence of chemical substance/The level of expressed mRNA in the absence of chemical substance (yeast gene YOL163W): 0.5 | The level of expressed mRNA in the presence of chemical substance/The level of expressed mRNA in the absence of chemical substance (yeast gene YOR035C): 1.9 | The level of expressed mRNA in the presence of chemical substance/The level of expressed mRNA in the absence of chemical substance (yeast gene YOR130C): 1.6 | The level of expressed mRNA in the presence of chemical substance/The level of expressed mRNA in the absence of chemical substance (yeast gene YOR153W): 7.4 | The level of expressed mRNA in the presence of chemical substance/The level of expressed mRNA in the absence of chemical substance (yeast gene YOR270C): 1.8 | The level of expressed mRNA in the presence of chemical substance/The level of expressed mRNA in the absence of chemical substance (yeast gene YOR273C): 0.4 | The level of expressed mRNA in the presence of chemical substance/The level of expressed mRNA in the absence of chemical substance (yeast gene YOR316C): 0.9 | The level of expressed mRNA in the presence of chemical substance/The level of expressed mRNA in the absence of chemical substance (yeast gene YOR328W): 2.9 | The level of expressed mRNA in the presence of chemical substance/The level of expressed mRNA in the absence of chemical substance (yeast gene YOR332W): 1.8 | The level of expressed mRNA in the presence of chemical substance/The level of expressed mRNA in the absence of chemical substance (yeast gene YOR348C): 0.7 | The level of expressed mRNA in the presence of chemical substance/The level of expressed mRNA in the absence of chemical substance (yeast gene YPL036W): 0.7 | The level of expressed mRNA in the presence of chemical substance/The level of expressed mRNA in the absence of chemical substance (yeast gene YPL134C): 1.2 | The level of expressed mRNA in the presence of chemical substance/The level of expressed mRNA in the absence of chemical substance (yeast gene YPL265W): 2.3 | The level of expressed mRNA in the presence of chemical substance/The level of expressed mRNA in the absence of chemical substance (yeast gene YPL271W): 3.3 | The level of expressed mRNA in the presence of chemical substance/The level of expressed mRNA in the absence of chemical substance (yeast gene YPR124W): 2.0 | The level of expressed mRNA in the presence of chemical substance/The level of expressed mRNA in the absence of chemical substance (yeast gene YPR192W): 0.9 | The level of expressed mRNA in the presence of chemical substance/The level of expressed mRNA in the absence of chemical substance (yeast gene YPR194C): 1.5
